According to PubChem BioAssay (NCI):
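How tested: cells in 96-well plates exposed to compound for 48 hours at five concentrations. GI50 is the concentration that inhibits growth by half. TGI is the concentration that stops growth completely.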

Assays:
Experiment in all cases: NCI tumour cell line growth inhibition, 48 h
[1] = test system: 786-0 renal
[2] = test system: A498 renal
[3] = test system: A549 NSCLC
[4] = test system: ACHN renal
[5] = test system: BT-549 breast
[6] = test system: CAKI-1 renal
[7] = test system: CCRF-CEM leukemia
[8] = test system: COLO 205 colon
[9] = test system: DU-145 prostate
[10] = test system: EKVX NSCLC
[11] = test system: HCC-2998 colon
[12] = test system: HCT-15 colon
[13] = test system: HL-60(TB) leukemia
[14] = test system: HOP-62 NSCLC
[15] = test system: HOP-92 NSCLC
[16] = test system: HS 578T breast
[17] = test system: HT29 colon
[18] = test system: IGROV1 ovarian
[19] = test system: KM12 colon
[20] = test system: LOX IMVI melanoma
[21] = test system: M14 melanoma
[22] = test system: MALME-3M melanoma
[23] = test system: MCF7 breast
[24] = test system: MDA-MB-231 breast
[25] = test system: MDA-MB-435
[26] = test system: MOLT-4 leukemia
[27] = test system: NCI-H226 lung
[28] = test system: NCI-H23 lung
[29] = test system: NCI-H460 lung
[30] = test system: NCI-H522 lung
[31] = test system: NCI/ADR-RES ovarian
[32] = test system: OVCAR-3 ovarian
[33] = test system: OVCAR-4 ovarian
[34] = test system: OVCAR-5 ovarian
[35] = test system: OVCAR-8 ovarian
[36] = test system: PC-3 prostate
[37] = test system: RPMI-8226 leukemia
[38] = test system: RXF 393 renal
[39] = test system: SF-268 CNS
[40] = test system: SF-295 CNS
[41] = test system: SF-539 CNS
[42] = test system: SK-MEL-2 melanoma
[43] = test system: SK-MEL-28 melanoma
[44] = test system: SK-MEL-5 melanoma
[45] = test system: SK-OV-3 ovarian
[46] = test system: SN12C renal
[47] = test system: SNB-19 CNS
[48] = test system: SNB-75 CNS
[49] = test system: SR leukemia
[50] = test system: SW-620 colon
[51] = test system: T-47D breast
[52] = test system: TK-10 renal
[53] = test system: U251 CNS
[54] = test system: UACC-257 melanoma
[55] = test system: UACC-62 melanoma
[56] = test system: UO-31 renal

Q: Which results are given for `C=C(CNCCO)[C@@H]1CC[C@]2(CO)CC[C@]3(C)[C@H](CC[C@@H]4[C@@]5(C)CCC(NCCc6ccc(O)cc6)C(C)(C)[C@@H]5CC[C@]43C)[C@@H]12` (some centres not stated)?
A: GI50 [1]: 0.202 µM; TGI [1]: 0.523 µM; GI50 [2]: 1.46 µM; TGI [2]: 2.81 µM; GI50 [3]: 1.43 µM; TGI [3]: 2.74 µM; GI50 [4]: 1.69 µM; TGI [4]: 3.08 µM; GI50 [5]: 1.55 µM; TGI [5]: 3.23 µM; GI50 [6]: 1.62 µM; TGI [6]: 3.33 µM; GI50 [7]: 0.5 µM; TGI [7]: 2.68 µM; GI50 [8]: 0.194 µM; TGI [8]: 0.427 µM; GI50 [9]: 1.6 µM; TGI [9]: 3.03 µM; GI50 [10]: 1.46 µM; TGI [10]: 3.11 µM; GI50 [11]: 0.355 µM; TGI [11]: 1.43 µM; GI50 [12]: 1.36 µM; TGI [12]: 2.82 µM; GI50 [13]: 2 µM; TGI [13]: 4.08 µM; GI50 [14]: 1.59 µM; TGI [14]: 2.99 µM; GI50 [15]: 0.822 µM; TGI [15]: 2.29 µM; GI50 [16]: 1.49 µM; TGI [16]: 3.7 µM; GI50 [17]: 0.263 µM; TGI [17]: 0.763 µM; GI50 [18]: 1.64 µM; TGI [18]: 3.55 µM; GI50 [19]: 1.39 µM; TGI [19]: 2.92 µM; GI50 [20]: 1.18 µM; TGI [20]: 2.63 µM; GI50 [21]: 0.187 µM; TGI [21]: 0.398 µM; GI50 [22]: 1.59 µM; TGI [22]: 3.13 µM; GI50 [23]: 0.339 µM; TGI [23]: 1.48 µM; GI50 [24]: 0.854 µM; TGI [24]: 2.17 µM; GI50 [25]: 1.51 µM; TGI [25]: 2.9 µM; GI50 [26]: 0.339 µM; TGI [26]: 1.36 µM; GI50 [27]: 1.69 µM; TGI [27]: 3.48 µM; GI50 [28]: 1.77 µM; TGI [28]: 3.45 µM; GI50 [29]: 1.18 µM; TGI [29]: 2.63 µM; GI50 [30]: 1.64 µM; TGI [30]: 3.13 µM; GI50 [31]: 2.18 µM; TGI [31]: 5.1 µM; GI50 [32]: 1.82 µM; TGI [32]: 3.73 µM; GI50 [33]: 1.44 µM; TGI [33]: 3 µM; GI50 [34]: 1.7 µM; TGI [34]: 3.29 µM; GI50 [35]: 1.46 µM; TGI [35]: 2.8 µM; GI50 [36]: 1.38 µM; TGI [36]: 3.07 µM; GI50 [37]: 1.02 µM; TGI [37]: 3.13 µM; GI50 [38]: 1.08 µM; TGI [38]: 2.39 µM; GI50 [39]: 1.56 µM; TGI [39]: 3.22 µM; GI50 [40]: 1.51 µM; TGI [40]: 2.96 µM; GI50 [41]: 1.52 µM; TGI [41]: 2.91 µM; GI50 [42]: 1.66 µM; TGI [42]: 3.18 µM; GI50 [43]: 1.6 µM; TGI [43]: 3.1 µM; GI50 [44]: 1.69 µM; TGI [44]: 3.13 µM; GI50 [45]: 1.7 µM; TGI [45]: 3.23 µM; GI50 [46]: 1.69 µM; TGI [46]: 3.19 µM; GI50 [47]: 1.6 µM; TGI [47]: 3.03 µM; GI50 [48]: 1.31 µM; TGI [48]: 2.63 µM; GI50 [49]: 0.25 µM; TGI [49]: 0.802 µM; GI50 [50]: 0.468 µM; TGI [50]: 1.85 µM; GI50 [51]: 1.74 µM; TGI [51]: 3.55 µM; GI50 [52]: 1.66 µM; TGI [52]: 3.1 µM; GI50 [53]: 0.278 µM; TGI [53]: 0.717 µM; GI50 [54]: 1.7 µM; TGI [54]: 3.08 µM; GI50 [55]: 1.75 µM; TGI [55]: 3.24 µM; GI50 [56]: 1.51 µM; TGI [56]: 2.94 µM
